# Results from article PMC12598616, “Design and optimization of caspase-1-responsive fluorescent probes for pyroptosis imaging and anti-pyroptosis drug screening” (Chemical Science, 2025).
# System: Cas-1 in primary chondrocytes
# Assay: Intracellular imaging in primary chondrocytes
# Type: cell-based
# Conditions: H2O2 2 mM 30, 60, 90 min; FPy1 5 μM 1 h
# Procedure: The decline in chondrocyte function plays a crucial role in the pathogenesis of OA. Inflammasome-mediated chondrocyte pyroptosis has been closely associated with matrix degradation and cartilage degeneration in OA.[38] To model OA in vitro, primary chondrocytes were stimulated with H2O2 (2 mM) for different durations, followed by staining with FPy1 (5 μM) and fluorescence imaging to monitor the progression of pyroptosis under oxidative stress. […] To better mimic the in vivo pathological features of OA, primary chondrocytes were also cultured as three-dimensional spheroids and stimulated with H2O2. […] Furthermore, we evaluated the capability of FPy1 to monitor pyroptosis progression at different stages of OA in a mouse model. […] The pathological manifestations in the corresponding tissues became more pronounced with longer modeling periods, consistent with the fluorescence imaging results obtained using FPy1. […]
# Chondrocytes were isolated from articular cartilage and resuspended in 1mL DMEM/F12 medium containing 10 μM ITS-A. A total of […] were counted and transferred into centrifuge tubes. […]
# The chondrocytes or 3D cell spheroids were seeded in dishes and cultured overnight. […] Fluorescence imaging was then performed with an excitation of 514 nm, and signals were […]
substance,measurement,value
"–FLTDG– [FPy1, RhoB donor, hNR quencher]",intracellular fluorescence intensity in primary chondrocytes,increased with prolonged H2O2 stimulation
